ChEMBL document CHEMBL4507288 (2021)

Columns and labels:
[1] = target: Beta-1 adrenergic receptor (Homo sapiens) (UniProt P08588); details: Compound concentration 10.0 uM
[2] = target: Cyclin-dependent kinase 18 (Homo sapiens) (UniProt Q07002); details: Compound concentration 1000.0 nM
[3] = target: Mitogen-activated protein kinase kinase kinase 6 (Homo sapiens) (UniProt O95382); details: Compound concentration 1000.0 nM
[4] = tested on: Phosphatidylinositol 4,5-bisphosphate 3-kinase catalytic subunit alpha isoform (Homo sapiens), P42336 [H1047Y]; details: Compound concentration 1000.0 nM
[5] = tested on: Mast/stem cell growth factor receptor Kit (Homo sapiens), P10721 [L576P]; details: Compound concentration 1000.0 nM
[6] = tested on: Tyrosine-protein kinase ABL1 (Homo sapiens), P00519 [Q252H]; details: Compound concentration 1000.0 nM
[7] = target: Ephrin type-A receptor 6 (Homo sapiens) (UniProt Q9UF33); details: Compound concentration 1000.0 nM
[8] = target: Serine/threonine-protein kinase ULK1 (Homo sapiens) (UniProt O75385); details: Compound concentration 1000.0 nM
[9] = target: Serine/threonine-protein kinase SIK3 (Homo sapiens) (UniProt Q9Y2K2); details: Compound concentration 1000.0 nM
[10] = tested on: Tyrosine-protein kinase ABL1 (Homo sapiens), P00519 [T315I]; details: Compound concentration 1000.0 nM
[11] = target: Receptor-interacting serine/threonine-protein kinase 2 (Homo sapiens) (UniProt O43353); details: Compound concentration 1000.0 nM
[12] = target: Dual specificity mitogen-activated protein kinase kinase 1 (Homo sapiens) (UniProt Q02750); details: Compound concentration 1000.0 nM
[13] = target: MAP kinase-activated protein kinase 2 (Homo sapiens) (UniProt P49137); details: Compound concentration 1000.0 nM
[14] = target: Death-associated protein kinase 3 (Homo sapiens) (UniProt O43293); details: Compound concentration 1000.0 nM
[15] = target: Phosphorylase b kinase regulatory subunit alpha, liver isoform (Homo sapiens) (UniProt P46019); details: Compound concentration 1000.0 nM
[16] = target: Serine/threonine-protein kinase D1 (Homo sapiens) (UniProt Q15139); details: Compound concentration 1000.0 nM
[17] = target: Serine/threonine-protein kinase TAO1 (Homo sapiens) (UniProt Q7L7X3); details: Compound concentration 1000.0 nM
[18] = target: TRAF2 and NCK-interacting protein kinase (Homo sapiens) (UniProt Q9UKE5); details: Compound concentration 1000.0 nM
[19] = target: Serine/threonine-protein kinase Nek5 (Homo sapiens) (UniProt Q6P3R8); details: Compound concentration 1000.0 nM
[20] = target: Casein kinase II subunit alpha' (Homo sapiens) (UniProt P19784); details: Compound concentration 1000.0 nM
[21] = target: Serine/threonine-protein kinase Nek10 (Homo sapiens) (UniProt Q6ZWH5); details: Compound concentration 1000.0 nM
[22] = target: Serine/threonine-protein kinase PLK3 (Homo sapiens) (UniProt Q9H4B4); details: Compound concentration 1000.0 nM
[23] = target: Ephrin type-B receptor 6 (Homo sapiens) (UniProt O15197); details: Compound concentration 1000.0 nM
[24] = target: Myosin light chain kinase 2, skeletal/cardiac muscle (Homo sapiens) (UniProt Q9H1R3); details: Compound concentration 1000.0 nM
[25] = target: Cyclin-dependent kinase 11A (Homo sapiens) (UniProt Q9UQ88); details: Compound concentration 1000.0 nM
[26] = tested on: ALK tyrosine kinase receptor (Homo sapiens), Q9UM73 [C1156Y]; details: Compound concentration 1000.0 nM
[27] = target: Mitogen-activated protein kinase kinase kinase 14 (Homo sapiens) (UniProt Q99558); details: Compound concentration 1000.0 nM
[28] = target: Serine/threonine-protein kinase PAK 3 (Homo sapiens) (UniProt O75914); details: Compound concentration 1000.0 nM
[29] = target: Casein kinase I isoform gamma-3 (Homo sapiens) (UniProt Q9Y6M4); details: Compound concentration 1000.0 nM
[30] = target: Myosin light chain kinase, smooth muscle (Homo sapiens) (UniProt Q15746); details: Compound concentration 1000.0 nM
[31] = target: NT-3 growth factor receptor (Homo sapiens) (UniProt Q16288); details: Compound concentration 1000.0 nM
[32] = target: Mitogen-activated protein kinase kinase kinase 10 (Homo sapiens) (UniProt Q02779); details: Compound concentration 1000.0 nM
[33] = target: Cyclin-dependent kinase-like 2 (Homo sapiens) (UniProt Q92772); details: Compound concentration 1000.0 nM
[34] = target: Insulin receptor-related protein (Homo sapiens) (UniProt P14616); details: Compound concentration 1000.0 nM
[35] = target: Serine/threonine-protein kinase Sgk3 (Homo sapiens) (UniProt Q96BR1); details: Compound concentration 1000.0 nM
[36] = tested on: Tyrosine-protein kinase ABL1 (Homo sapiens), P00519 [F317I]; details: Compound concentration 1000.0 nM
[37] = target: Tyrosine-protein kinase CSK (Homo sapiens) (UniProt P41240); details: Compound concentration 1000.0 nM
[38] = target: Tyrosine-protein kinase ZAP-70 (Homo sapiens) (UniProt P43403); details: Compound concentration 1000.0 nM
[39] = target: Serine/threonine-protein kinase tousled-like 1 (Homo sapiens) (UniProt Q9UKI8); details: Compound concentration 1000.0 nM
[40] = tested on: Epidermal growth factor receptor (Homo sapiens), P00533 [L858R]; details: Compound concentration 1000.0 nM
[41] = target: Serine/threonine-protein kinase TBK1 (Homo sapiens) (UniProt Q9UHD2); details: Compound concentration 1000.0 nM
[42] = target: Dual specificity protein kinase CLK1 (Homo sapiens) (UniProt P49759); details: Compound concentration 1000.0 nM
[43] = target: Ephrin type-A receptor 1 (Homo sapiens) (UniProt P21709); details: Compound concentration 1000.0 nM
[44] = tested on: Phosphatidylinositol 4,5-bisphosphate 3-kinase catalytic subunit alpha isoform (Homo sapiens), P42336 [E545K]; details: Compound concentration 1000.0 nM
[45] = target: Leucine-rich repeat serine/threonine-protein kinase 2 (Homo sapiens) (UniProt Q5S007); details: Compound concentration 1000.0 nM

Ephrin type-A receptor 1 (Homo sapiens), sequence (P21709 whole entry, canonical isoform): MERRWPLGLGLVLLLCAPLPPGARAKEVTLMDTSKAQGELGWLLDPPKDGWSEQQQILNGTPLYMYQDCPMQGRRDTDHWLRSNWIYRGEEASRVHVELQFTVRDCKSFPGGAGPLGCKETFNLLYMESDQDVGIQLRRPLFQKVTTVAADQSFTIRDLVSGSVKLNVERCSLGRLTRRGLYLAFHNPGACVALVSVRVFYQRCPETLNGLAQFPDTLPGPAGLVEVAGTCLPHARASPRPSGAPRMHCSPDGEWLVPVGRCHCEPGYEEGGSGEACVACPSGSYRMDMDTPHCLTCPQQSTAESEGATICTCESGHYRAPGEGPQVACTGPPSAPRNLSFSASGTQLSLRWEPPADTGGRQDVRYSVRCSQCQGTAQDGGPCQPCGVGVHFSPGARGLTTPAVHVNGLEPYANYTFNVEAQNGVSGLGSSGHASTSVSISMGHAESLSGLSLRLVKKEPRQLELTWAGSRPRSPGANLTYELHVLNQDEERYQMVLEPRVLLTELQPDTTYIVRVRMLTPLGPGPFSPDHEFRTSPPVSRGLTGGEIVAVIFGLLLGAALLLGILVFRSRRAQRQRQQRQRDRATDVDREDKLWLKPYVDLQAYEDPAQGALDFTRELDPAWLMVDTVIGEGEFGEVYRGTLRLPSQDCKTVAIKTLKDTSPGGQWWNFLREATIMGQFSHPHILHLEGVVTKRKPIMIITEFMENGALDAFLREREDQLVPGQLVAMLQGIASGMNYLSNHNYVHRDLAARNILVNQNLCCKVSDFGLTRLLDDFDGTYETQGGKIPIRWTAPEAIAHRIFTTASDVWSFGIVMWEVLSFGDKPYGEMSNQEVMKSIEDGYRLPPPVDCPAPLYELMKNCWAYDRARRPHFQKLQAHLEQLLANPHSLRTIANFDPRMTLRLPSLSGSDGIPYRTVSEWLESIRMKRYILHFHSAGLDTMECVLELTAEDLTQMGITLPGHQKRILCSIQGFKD
Mast/stem cell growth factor receptor Kit (Homo sapiens), P10721 [L576P], sequence (P10721 whole entry L576P): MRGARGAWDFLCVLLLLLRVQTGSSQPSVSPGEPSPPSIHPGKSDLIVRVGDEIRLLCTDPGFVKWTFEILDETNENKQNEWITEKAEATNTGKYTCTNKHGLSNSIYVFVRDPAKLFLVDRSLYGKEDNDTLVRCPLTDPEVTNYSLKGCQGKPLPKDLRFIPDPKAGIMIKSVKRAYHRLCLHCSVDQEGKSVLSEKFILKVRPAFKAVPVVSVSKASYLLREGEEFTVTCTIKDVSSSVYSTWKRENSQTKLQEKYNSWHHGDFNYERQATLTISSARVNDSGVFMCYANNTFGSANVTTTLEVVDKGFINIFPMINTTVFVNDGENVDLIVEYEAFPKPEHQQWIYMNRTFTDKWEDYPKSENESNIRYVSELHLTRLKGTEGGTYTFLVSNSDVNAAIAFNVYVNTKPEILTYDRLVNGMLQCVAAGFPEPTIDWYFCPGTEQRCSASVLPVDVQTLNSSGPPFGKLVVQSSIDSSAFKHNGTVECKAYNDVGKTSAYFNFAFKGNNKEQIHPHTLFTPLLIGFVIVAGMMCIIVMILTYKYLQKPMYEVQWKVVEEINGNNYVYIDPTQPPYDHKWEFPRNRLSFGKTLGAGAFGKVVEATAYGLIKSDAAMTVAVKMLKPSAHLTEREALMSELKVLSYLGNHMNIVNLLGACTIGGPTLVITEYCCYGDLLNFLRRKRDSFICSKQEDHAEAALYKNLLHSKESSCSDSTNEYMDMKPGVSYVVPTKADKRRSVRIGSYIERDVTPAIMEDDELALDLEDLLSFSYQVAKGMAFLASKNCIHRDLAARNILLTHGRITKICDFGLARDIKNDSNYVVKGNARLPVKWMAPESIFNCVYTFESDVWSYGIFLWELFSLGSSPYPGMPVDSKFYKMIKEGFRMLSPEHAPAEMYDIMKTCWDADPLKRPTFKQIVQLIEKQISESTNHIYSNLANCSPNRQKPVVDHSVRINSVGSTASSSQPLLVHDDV
Casein kinase I isoform gamma-3 (Homo sapiens), sequence (Q9Y6M4 whole entry, looked up, canonical isoform): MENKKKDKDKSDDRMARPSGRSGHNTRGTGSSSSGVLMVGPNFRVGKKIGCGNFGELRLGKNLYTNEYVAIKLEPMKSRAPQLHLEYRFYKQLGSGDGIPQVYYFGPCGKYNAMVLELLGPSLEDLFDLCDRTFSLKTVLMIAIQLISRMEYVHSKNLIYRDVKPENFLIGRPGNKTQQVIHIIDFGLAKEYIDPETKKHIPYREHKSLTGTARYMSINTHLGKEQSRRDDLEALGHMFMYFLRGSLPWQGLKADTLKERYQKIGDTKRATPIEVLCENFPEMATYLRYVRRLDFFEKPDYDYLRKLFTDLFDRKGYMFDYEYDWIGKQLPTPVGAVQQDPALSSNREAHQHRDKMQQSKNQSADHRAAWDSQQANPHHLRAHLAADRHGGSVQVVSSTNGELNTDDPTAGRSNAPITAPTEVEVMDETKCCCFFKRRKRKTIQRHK
Casein kinase II subunit alpha' (Homo sapiens), sequence (P19784 whole entry, looked up): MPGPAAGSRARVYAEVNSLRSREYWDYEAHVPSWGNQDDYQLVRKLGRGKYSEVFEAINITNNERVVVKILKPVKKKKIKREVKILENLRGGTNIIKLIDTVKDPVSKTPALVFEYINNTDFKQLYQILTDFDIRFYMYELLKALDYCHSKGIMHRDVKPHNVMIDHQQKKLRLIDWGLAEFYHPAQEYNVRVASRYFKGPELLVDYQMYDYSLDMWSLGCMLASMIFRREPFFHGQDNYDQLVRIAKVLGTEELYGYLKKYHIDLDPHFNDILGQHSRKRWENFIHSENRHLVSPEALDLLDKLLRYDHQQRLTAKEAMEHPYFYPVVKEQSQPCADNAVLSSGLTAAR
Tyrosine-protein kinase ZAP-70 (Homo sapiens), sequence (P43403 whole entry): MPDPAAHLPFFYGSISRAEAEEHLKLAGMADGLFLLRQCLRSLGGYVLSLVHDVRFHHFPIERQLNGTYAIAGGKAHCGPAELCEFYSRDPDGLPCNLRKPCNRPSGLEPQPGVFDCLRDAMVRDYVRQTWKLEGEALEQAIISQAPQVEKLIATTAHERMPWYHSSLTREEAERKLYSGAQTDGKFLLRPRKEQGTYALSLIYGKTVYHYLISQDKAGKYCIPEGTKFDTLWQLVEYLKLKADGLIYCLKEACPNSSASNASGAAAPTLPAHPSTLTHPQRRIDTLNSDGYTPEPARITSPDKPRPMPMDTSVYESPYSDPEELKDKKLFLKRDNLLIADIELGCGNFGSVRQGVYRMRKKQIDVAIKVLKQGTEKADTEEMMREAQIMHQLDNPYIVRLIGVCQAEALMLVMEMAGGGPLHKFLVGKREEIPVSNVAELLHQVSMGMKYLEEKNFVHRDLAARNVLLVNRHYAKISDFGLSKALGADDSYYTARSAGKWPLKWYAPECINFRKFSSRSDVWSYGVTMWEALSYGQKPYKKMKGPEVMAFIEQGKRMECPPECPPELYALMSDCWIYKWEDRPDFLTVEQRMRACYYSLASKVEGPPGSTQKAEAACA
Mitogen-activated protein kinase kinase kinase 10 (Homo sapiens), sequence (Q02779 whole entry, looked up): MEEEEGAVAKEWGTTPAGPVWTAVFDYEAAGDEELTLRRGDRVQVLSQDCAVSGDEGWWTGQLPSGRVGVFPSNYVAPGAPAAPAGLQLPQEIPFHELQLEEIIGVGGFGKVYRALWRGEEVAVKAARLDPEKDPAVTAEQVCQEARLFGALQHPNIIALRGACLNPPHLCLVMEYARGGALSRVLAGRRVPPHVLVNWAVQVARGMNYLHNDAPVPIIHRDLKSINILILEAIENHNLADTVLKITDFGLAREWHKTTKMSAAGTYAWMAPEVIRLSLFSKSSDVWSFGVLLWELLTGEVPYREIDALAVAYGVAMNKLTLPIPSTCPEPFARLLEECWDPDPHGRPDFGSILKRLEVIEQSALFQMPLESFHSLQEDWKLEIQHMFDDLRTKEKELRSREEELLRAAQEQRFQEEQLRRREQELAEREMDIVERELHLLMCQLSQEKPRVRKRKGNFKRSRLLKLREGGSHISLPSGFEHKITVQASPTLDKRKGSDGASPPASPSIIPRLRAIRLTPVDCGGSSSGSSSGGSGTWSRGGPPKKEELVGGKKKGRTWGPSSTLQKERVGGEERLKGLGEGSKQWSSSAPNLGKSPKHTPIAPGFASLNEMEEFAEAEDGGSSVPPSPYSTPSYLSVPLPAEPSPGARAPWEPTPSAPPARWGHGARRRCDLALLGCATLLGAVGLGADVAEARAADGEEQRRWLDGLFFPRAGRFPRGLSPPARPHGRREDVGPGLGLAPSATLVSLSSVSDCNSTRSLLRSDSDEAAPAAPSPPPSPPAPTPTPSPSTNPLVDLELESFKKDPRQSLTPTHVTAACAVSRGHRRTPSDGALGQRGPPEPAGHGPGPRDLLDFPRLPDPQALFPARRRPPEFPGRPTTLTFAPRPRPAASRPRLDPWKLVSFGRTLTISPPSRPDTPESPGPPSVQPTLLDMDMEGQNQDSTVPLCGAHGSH
Serine/threonine-protein kinase PLK3 (Homo sapiens), sequence (Q9H4B4 whole entry, looked up): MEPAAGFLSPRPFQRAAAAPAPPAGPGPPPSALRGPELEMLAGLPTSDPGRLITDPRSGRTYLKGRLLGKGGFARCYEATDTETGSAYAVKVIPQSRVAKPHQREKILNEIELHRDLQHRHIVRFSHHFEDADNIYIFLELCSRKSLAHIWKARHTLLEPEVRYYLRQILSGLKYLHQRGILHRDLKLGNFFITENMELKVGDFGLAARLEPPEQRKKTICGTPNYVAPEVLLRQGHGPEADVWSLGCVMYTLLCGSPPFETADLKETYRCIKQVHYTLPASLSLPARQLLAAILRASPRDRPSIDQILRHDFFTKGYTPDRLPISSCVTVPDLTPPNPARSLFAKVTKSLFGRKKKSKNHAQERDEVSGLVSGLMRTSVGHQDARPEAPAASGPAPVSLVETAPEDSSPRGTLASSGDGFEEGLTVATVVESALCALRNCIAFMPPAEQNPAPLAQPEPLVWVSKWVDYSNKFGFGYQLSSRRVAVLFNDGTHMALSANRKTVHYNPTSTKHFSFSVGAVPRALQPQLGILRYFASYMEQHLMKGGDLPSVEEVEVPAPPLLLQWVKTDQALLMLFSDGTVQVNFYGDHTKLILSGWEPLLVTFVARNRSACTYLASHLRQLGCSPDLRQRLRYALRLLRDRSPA

CC(C)(C)OC(=O)N1CCCC1CNC1CCC(c2cc(F)ccc2F)(S(=O)(=O)c2ccc(Cl)cc2)CC1 (stereo not given) [GSI-NC]
inactive: inhibition [1] 3.61%

O=S(=O)(NC1CCC(c2cc(F)ccc2F)(S(=O)(=O)c2ccc(Cl)cc2)CC1)C(F)(F)F (stereo not given) [MRK-560]
inactive: residual activity [2] 100% | residual activity [3] 82% | residual activity [4] 100% | residual activity [5] 100% | residual activity [6] 95% | residual activity [7] 100% | residual activity [8] 84% | residual activity [9] 100% | residual activity [10] 85% | residual activity [11] 84% | residual activity [12] 100% | residual activity [13] 93% | residual activity [14] 97% | residual activity [15] 91% | residual activity [16] 100% | residual activity [17] 100% | residual activity [18] 82% | residual activity [19] 100% | residual activity [20] 99% | residual activity [21] 100% | residual activity [22] 97% | residual activity [23] 100% | residual activity [24] 91% | residual activity [25] 96% | residual activity [26] 100% | residual activity [27] 82% | residual activity [28] 100% | residual activity [29] 83% | residual activity [30] 100% | residual activity [31] 91% | residual activity [32] 100% | residual activity [33] 100% | residual activity [34] 100% | residual activity [35] 89% | residual activity [36] 100% | residual activity [37] 100% | residual activity [38] 100% | residual activity [39] 100% | residual activity [40] 100% | residual activity [41] 100% | residual activity [42] 78% | residual activity [43] 100% | residual activity [44] 77% | residual activity [45] 96%
